# Experimental data as given in patent US12637430B2, “Interleukin-17 (IL-17) inhibitors” (priority 2020, dated 2026).
# Where two headings read alike, the source gives them in different places.
# Experiments:
# [1] = test system: cytochrome P450 1A2 (CYP1A2); type: in vitro ADME; details: human hepatocytes
# Method: In order to evaluate the induction of CYP enzymes in human hepatocytes by the compounds prepared in the above examples at 10 μM, Omeprazole (positive control) and the compound prepared in Example 32 (control compound 2) disclosed in patent application. WO2020/127685A1 were used as controls.
# human IL-17A protein = biological target: T1, human IL-17A protein (Homo sapiens, UniProt Q16552); test: Inhibition of chemokine GROα/CXCL1 generation induced by human IL-17A protein in HT-29 cell; type: cell-based
# T1 construct: purchased R&D 317-ILB
# T1 sequence (Q16552 20-155 limits assumed): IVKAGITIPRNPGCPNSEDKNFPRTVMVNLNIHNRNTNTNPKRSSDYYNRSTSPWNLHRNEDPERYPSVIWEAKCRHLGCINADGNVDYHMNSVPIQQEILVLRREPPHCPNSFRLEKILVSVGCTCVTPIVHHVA
# Method: HT-29 (Zhongyuan Gongchuang Technology Co., Ltd. of Chengdu, Sichuan) was added to a 96-well plate at 5×10^4 cells/well, and cultured overnight in a incubator at 37° C. A mixture of 30 ng/mL of human IL-17A protein (R&D, #317-ILB) and IL-17A small molecule inhibitors with gradient concentrations or 0.3 μg/mL of positive control IL-17A antibody (R&D, #AF-317-NA) was incubated at 37° C. for 1 h, and then added to the above-mentioned 96-well plate, and incubated with HT-29 cells at 37° C. for 48 hours. Then the GROα level in the cell culture supernatant was detected by an ELISA kit (Cisbio, #62HCXC1PEG) of the GROα.
# According to the methods described in Experimental Examples 1 and 2, the compounds prepared in the above-mentioned examples were subjected to the experiment on inhibition of chemokine GROα/CXCL1 generation induced by human IL-17A protein in HT-29 cell.
# human IL-17A = biological target: T2, human IL-17A (Homo sapiens, UniProt Q16552); test: IL-17A enzyme-linked immunosorbent assay (competitive ELISA, IL-17A/IL-17R binding)
# T2 construct: purchased Sino Biological Inc. 12047-H07B
# T2 sequence (Q16552 24-155): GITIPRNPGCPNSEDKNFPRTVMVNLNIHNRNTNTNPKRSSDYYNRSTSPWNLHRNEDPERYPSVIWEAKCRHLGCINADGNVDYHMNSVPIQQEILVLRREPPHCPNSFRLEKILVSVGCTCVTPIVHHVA
# Method: The inhibition of receptor-ligand binding by human IL-17A inhibitors was quantified by competitive ELISA. 0.2 μg/mL of IL-17A (Sino Biological Inc. Cat #12047-H07B) was added in a 96-well plate at 100 μl per well for incubation for 30 min under 37° C. The 96-well plate was washed with PBST (PBS, 0.05% Tween-20) at 200 μl per well for 4 times, and then added with 200 μl of 5% skim milk and placed on a shaker for incubation at 25° C. for 30 min. The compound to be tested was prepared at 100× concentration ranging from 0.003 μM to 30 μM. After washed with PBST (PBS, 0.05% Tween-20) 4 times, the plate was added with 89 μl of PBST and 1 μl of the compound to be tested at 100× concentration followed by uniformly mixing and pre-incubation at 25° C. for 10 min. Then the plate was added with 10 μl of 16 nM IL-17R, and incubated on a shaker at 25° C. for 30 min. After washed for 4 times, the plate was added with 100 μl of anti-Fc-tag horseradish peroxidase (HRP)-conjugated antibody, and incubated on a shaker at 25° C. for 30 min. After washed 4 times, the plate was added with 100 μl of 3,3′, 5,5″-tetramethylbenzidine (TMB) substrate solution, and incubated at 25° C. in the dark. Then the plate was added with 20% HCl, followed by detection of the light absorption value at a wavelength of 450 nm by a microplate reader. The compounds prepared in the above examples were tested for human IL-17A inhibitory activity according to the above method.
# [2] = test system: imiquimod-induced psoriasis mouse model; test: Pharmacodynamic test on an imiquimod cream-induced psoriasis model in mice; type: in vivo, C57BL/6N mouse
# Method: Each 10-week-old female C57 black 6 (C57BL/6N) mouse was shaved to approximately 2.5×4 cm on the back, which the imiquimod (IMQ, Imiquimod) cream continuously applies from the day 1-4, so as to establish a psoriasis model. Each mouse was administrated with the compound 51 prepared in this application by gavage (3, 10, 30 mg/kg) once a day, and administrated with IL-17A antibody solution by intraperitoneal injection (Ab, 2 mg/kg) every other day, or administrated with dexamethasone solution by intraperitoneal injection (10 mg/kg) once a day. […] On day 1 and day 5 of the experiment, the skin thickness of the mice was measured to investigate the skin thickening induced by IMQ.
# On day 5 of the experiment, the skins of mice in each group were collected, the mRNA expression level of IL6 was detected by quantitative reverse transcription polymerase chain reaction (RT-qPCR) test. […] On day 5 of the experiment, the plasma of mice in each group was collected, and the IL6 protein level was measured.
# On day 5 of the model, the skin samples were collected from the back of each mouse. The samples were fixed in 4% paraformaldehyde, and stained with hematoxylin-eosin (HE) to investigate the protective effect of compound 51 on skin pathological damage.
# [3] = Pharmacokinetic properties in dogs (intravenous injection/oral gavage); type: in vivo; details: oral bioavailability, beagle dogs
# Method: (§1) In order to investigate the pharmacokinetic properties of the compound in rats, 3 rats were administered with the compounds at corresponding doses by intravenous injection/oral gavage, respectively. The anticoagulated whole blood of the rats were collected and the plasma was separated at 5 min, 15 min, 30 min, 1 h, 2 h, 4 h, 8 h, 24 h after administrated. In order to investigate the pharmacokinetic properties of the compound in mice, 6 mice were administered with the compound at the corresponding dose by intravenous injection/oral gavage. The mice administered by each route were divided into A group and B group. The anticoagulated whole blood was collected from the mice in group A at 5 min, 30 min, 2 h, and 8 h after the administration, and the anticoagulated whole blood was collected from the mice in group B at 15 min, 1 h, 4 h, and 24 h after the administration, and plasma was separated. In order to investigate the pharmacokinetic properties of dogs, two groups of 4 beagle dogs (2 males+2 females) were administered with the compound at corresponding doses by intravenous injection/oral gavage. The anticoagulated whole blood of each dog was collected, and the plasma was separated at 2 h, 4 h, 8 h, 12 h, 24 h, 36 h after the administration.
# (§2) Plasma concentrations of compounds were determined by standard curve calibration by LC-MS. […]
# [4] = Pharmacokinetic properties in mice (intravenous injection/oral gavage); type: in vivo; details: oral bioavailability
# Method: as §1, §2
# [5] = Pharmacokinetic properties in rats (intravenous injection/oral gavage); type: in vivo; details: oral bioavailability
# Method: as §1, §2
Structure (SMILES),mRNA Expression level Fold of induction 1A2 ([1]; concentration 25/750 μM (positive control)),IC50 (human IL-17A protein),IC50 (human IL-17A),"skin thickening induced by IMQ (skin thickness day 1 and day 5) ([2]; compound 51 gavage 3, 10, 30 mg/kg once a day, antibody i.p. 2 mg/kg every other day, FIG. 1B)","skin pathological damage (HE staining) ([2]; day 5, 3, 10 and 30 mg/kg, FIGS. 2A-G)","mRNA expression level of IL6 in skin (RT-qPCR) ([2]; day 5, gavage 3, 10, 30 mg/kg, FIG. 1C)","IL6 protein level in plasma ([2]; day 5, gavage 3, 10, 30 mg/kg, FIG. 1D)","AUC of the psoriasis area and severity index (PASI) scoring curve (skin inflammation) ([2]; gavage 3, 10, 30 mg/kg once a day, FIG. 1A)",F %(Dogs) [3],F % (Mice) [4],Note 1A2 (CYP1A2 induction) ([1]; 10 μM),mRNA Expression level % of the positive control 1A2 ([1]; 10 μM),mRNA Expression level Fold of induction 1A2 ([1]; 10 μM),"Note 1A2 (CYP1A2 induction) ([1]; 10 μM, listed as compound 51)",F % (Rats) [5]
"COc1ccc2[nH]c([S+]([O-])Cc3ncc(C)c(OC)c3C)nc2c1 (stereo not drawn) [Omeprazole, reference compound]",12.8,,,,,,,,,,,,,,
Cc1n[nH]c(C)c1-c1ncc(NC(=O)[C@@H](NC(=O)c2ccnn2C(C)C)C(C2CC2)C2CC2)cc1F [Compound 51],,224 nM,42 nM,reversed the skin thickening caused by IMQ at different levels,may inhibit the infiltration and damage of skin inflammatory cells induced by IMQ at different levels,dependently reversed the up-regulation of IL6 expression level,dependently inhibited the increase of IL6 protein level in the plasma,reduced the level of skin inflammation induced by IMQ,58%,56%,Non-,2.20%,1.26,no inducing effect,46%
